Reference: ChEMBL document CHEMBL5465560, “Selectivity Literature for EUbOPEN Chemogenomic Library” (2024)
One block for each compound: values may come before it.

Legend:
[1] = target: L-type calcium channel Cav1.2 (CACNA1C) (Homo sapiens, UniProt Q13936); test: Selectivity interaction (Panel of kinases, GPCRs, ion channels and transporters (enzymatic assay)) EUB0000266bCl CACNA1C
[2] = target: Histone-lysine N-methyltransferase 2A (Homo sapiens) (UniProt Q03164); test: Selectivity interaction (Bromodomain panel (DSF asssay)) EUB0000270b MLL
[3] = target: Cyclin-dependent kinase 5/CDK5 activator 1 (Homo sapiens) (UniProt Q00535+Q15078); test: Selectivity interaction (Kinase panel (Z-LYTE Assay)) EUB0001632a CDK5; format: protein-complex assay; conditions: at 10 µM
Cyclin-dependent kinase 5/CDK5 activator 1 (Homo sapiens), sequence (Q00535 whole entry): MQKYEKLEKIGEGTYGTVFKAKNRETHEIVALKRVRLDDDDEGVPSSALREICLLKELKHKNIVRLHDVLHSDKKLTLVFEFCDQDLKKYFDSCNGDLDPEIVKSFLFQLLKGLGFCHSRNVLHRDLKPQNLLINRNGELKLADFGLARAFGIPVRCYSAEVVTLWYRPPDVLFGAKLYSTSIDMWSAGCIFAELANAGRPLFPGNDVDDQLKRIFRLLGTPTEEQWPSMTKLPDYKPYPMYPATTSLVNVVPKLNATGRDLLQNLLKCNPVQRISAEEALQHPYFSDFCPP
Cyclin-dependent kinase 5/CDK5 activator 1 (Homo sapiens), sequence (Q15078 99-307 partner limits assumed): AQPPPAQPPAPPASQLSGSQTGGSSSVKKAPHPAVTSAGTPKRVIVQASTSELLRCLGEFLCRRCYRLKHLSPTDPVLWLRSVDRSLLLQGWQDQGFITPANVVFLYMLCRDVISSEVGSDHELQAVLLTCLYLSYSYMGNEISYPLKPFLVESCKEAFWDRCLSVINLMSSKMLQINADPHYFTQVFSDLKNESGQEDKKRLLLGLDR

[4] = target: Serine/threonine-protein kinase SBK1 (Homo sapiens) (UniProt Q52WX2); test: Selectivity interaction (KinomeScan (DiscoverX)) EUB0000595a SBK1; conditions: at 10 µM
Serine/threonine-protein kinase SBK1 (Homo sapiens), sequence (Q52WX2 whole entry): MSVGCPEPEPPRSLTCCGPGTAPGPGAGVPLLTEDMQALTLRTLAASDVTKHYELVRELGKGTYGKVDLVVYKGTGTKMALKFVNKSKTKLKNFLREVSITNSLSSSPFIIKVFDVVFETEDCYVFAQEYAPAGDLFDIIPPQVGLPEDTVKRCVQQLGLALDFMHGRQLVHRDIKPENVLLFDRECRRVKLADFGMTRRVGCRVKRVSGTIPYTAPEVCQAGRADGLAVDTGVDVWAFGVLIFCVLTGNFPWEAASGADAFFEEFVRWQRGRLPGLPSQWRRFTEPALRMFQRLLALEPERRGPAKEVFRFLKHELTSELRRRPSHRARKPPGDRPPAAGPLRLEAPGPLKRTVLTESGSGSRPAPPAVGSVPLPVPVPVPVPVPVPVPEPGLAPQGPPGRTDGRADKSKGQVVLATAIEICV

[5] = target: T1, Ephrin type-A receptor 3 (Homo sapiens) (UniProt P29320); test: Selectivity interaction (ProQinase) EUB0000171b EPHA3
T1 sequence (whole entry): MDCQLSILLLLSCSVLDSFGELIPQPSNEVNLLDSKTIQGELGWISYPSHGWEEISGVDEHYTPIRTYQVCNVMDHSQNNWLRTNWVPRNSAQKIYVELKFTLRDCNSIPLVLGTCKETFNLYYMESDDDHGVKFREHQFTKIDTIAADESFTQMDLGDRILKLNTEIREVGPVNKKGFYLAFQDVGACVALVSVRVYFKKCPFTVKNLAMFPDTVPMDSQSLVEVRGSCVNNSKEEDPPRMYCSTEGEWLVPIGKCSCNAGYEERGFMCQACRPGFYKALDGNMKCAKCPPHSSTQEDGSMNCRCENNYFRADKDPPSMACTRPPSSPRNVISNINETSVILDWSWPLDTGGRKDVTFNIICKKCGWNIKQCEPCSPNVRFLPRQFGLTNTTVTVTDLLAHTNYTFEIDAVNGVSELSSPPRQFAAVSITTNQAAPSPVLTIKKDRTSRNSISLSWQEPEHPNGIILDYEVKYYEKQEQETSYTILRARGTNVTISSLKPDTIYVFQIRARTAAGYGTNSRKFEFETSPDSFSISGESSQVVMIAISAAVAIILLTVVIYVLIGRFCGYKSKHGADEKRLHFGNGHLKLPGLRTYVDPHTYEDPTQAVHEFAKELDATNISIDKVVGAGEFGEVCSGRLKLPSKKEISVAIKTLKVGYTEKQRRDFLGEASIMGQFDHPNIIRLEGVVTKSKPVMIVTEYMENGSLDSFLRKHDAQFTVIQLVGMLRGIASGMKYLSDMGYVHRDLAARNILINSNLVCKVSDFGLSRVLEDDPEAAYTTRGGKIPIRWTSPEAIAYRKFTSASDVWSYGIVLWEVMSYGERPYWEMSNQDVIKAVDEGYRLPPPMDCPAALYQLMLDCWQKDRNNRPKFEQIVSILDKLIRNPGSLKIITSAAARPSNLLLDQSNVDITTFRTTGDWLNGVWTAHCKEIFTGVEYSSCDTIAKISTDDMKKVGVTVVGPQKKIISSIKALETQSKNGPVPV

[6] = target: Ribosomal protein S6 kinase alpha-5 (Homo sapiens) (UniProt O75582); test: Selectivity interaction (KinomeScan (DiscoverX)) EUB0000092b RPS6KA5; conditions: at 10 µM
[7] = target: Serine/threonine-protein kinase 26 (Homo sapiens, UniProt Q9P289); test: Selectivity interaction (Upstate Kinase Profiler service (Millipore)) EUB0000056c STK26; conditions: at 1 µM
Serine/threonine-protein kinase 26, sequence (Q9P289 2-416 limits assumed): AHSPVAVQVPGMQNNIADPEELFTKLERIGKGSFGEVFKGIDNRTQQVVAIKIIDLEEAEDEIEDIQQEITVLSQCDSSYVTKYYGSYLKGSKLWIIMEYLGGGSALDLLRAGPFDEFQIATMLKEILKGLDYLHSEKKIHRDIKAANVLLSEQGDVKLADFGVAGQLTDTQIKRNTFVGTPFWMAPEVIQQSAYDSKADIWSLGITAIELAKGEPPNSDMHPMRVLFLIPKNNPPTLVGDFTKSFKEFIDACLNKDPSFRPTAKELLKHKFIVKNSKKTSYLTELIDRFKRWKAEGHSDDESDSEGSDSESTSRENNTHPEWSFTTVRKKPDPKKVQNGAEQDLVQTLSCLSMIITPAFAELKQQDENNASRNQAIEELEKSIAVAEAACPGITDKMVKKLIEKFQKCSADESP

[8] = target: Casein kinase I isoform gamma-3 (Homo sapiens) (UniProt Q9Y6M4); test: Selectivity interaction (KinomeScan (DiscoverX)) EUB0000655a CSNK1G3; conditions: at 10 µM
Casein kinase I isoform gamma-3 (Homo sapiens), sequence (Q9Y6M4 whole entry, looked up, canonical isoform): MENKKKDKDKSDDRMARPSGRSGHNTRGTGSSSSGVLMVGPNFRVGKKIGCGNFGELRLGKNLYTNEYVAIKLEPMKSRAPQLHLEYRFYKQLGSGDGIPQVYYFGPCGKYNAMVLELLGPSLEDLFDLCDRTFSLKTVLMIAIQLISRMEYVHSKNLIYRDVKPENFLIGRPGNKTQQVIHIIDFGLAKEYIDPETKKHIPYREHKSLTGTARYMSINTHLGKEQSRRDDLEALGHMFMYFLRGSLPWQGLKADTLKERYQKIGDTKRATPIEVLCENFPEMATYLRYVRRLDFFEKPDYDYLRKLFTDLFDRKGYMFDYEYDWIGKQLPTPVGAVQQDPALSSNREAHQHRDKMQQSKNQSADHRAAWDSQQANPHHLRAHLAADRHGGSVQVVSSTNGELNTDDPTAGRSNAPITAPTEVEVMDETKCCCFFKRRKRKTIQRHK

[9] = target: Interleukin-1 receptor-associated kinase 1 (Homo sapiens) (UniProt P51617); test: Selectivity interaction (ActivX KiNativ screen (ex vivo kinase selectivity in human PBMCs)) EUB0001619a IRAK1; format: cell-based; conditions: PBMC, at 1 µM
[10] = target: T2, Serine/threonine-protein kinase Nek8 (Homo sapiens) (UniProt Q86SG6); test: Selectivity interaction (Kinase panel (KiNativ target engagement assay in Jurkat cells)) EUB0001635a NEK8; format: cell-based; conditions: at 1 µM
T2 sequence (whole entry): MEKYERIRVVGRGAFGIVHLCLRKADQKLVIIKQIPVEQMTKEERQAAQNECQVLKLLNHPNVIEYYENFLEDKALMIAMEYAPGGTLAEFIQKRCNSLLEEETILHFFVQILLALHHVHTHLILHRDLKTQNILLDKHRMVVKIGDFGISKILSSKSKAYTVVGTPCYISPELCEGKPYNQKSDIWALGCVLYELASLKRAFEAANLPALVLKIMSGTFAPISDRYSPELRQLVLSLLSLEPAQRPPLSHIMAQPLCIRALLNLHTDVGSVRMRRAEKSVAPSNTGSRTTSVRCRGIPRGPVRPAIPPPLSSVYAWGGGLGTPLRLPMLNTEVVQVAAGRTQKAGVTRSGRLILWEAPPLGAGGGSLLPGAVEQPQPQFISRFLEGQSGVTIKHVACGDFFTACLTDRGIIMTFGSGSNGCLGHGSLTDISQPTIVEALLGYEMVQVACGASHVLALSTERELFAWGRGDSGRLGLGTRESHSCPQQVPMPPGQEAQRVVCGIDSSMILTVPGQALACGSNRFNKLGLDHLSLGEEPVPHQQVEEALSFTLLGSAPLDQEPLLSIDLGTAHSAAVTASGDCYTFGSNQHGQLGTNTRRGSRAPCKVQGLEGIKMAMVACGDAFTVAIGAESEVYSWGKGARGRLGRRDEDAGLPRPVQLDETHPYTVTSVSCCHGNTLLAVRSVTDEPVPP

[11] = target: Ribosomal protein S6 kinase alpha-4 (Homo sapiens) (UniProt O75676); test: Selectivity interaction (KinomeScan (DiscoverX)) EUB0000666a RPS6KA4; conditions: at 10 µM
Ribosomal protein S6 kinase alpha-4 (Homo sapiens), sequence (O75676 whole entry, looked up): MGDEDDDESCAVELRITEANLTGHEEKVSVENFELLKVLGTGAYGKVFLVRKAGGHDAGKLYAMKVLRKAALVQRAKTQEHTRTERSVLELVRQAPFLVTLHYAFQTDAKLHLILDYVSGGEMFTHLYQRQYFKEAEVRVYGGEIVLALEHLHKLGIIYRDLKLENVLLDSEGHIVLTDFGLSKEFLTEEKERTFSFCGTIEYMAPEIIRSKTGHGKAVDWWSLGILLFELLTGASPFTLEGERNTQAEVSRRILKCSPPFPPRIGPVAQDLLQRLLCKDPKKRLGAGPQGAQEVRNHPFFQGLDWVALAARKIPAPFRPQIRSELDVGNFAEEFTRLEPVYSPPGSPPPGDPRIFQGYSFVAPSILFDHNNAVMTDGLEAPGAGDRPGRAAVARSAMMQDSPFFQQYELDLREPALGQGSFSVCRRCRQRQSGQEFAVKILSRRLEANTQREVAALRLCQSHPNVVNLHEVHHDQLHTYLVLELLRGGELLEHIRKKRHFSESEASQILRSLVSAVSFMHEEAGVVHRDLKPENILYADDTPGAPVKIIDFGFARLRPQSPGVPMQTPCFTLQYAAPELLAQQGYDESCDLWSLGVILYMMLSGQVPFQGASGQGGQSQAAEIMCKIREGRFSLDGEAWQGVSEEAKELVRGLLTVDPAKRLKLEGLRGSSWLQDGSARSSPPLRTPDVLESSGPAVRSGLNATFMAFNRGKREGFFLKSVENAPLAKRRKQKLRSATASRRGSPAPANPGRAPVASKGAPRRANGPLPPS

L-type calcium channel Cav1.2 (CACNA1C), sequence (Q13936 whole entry): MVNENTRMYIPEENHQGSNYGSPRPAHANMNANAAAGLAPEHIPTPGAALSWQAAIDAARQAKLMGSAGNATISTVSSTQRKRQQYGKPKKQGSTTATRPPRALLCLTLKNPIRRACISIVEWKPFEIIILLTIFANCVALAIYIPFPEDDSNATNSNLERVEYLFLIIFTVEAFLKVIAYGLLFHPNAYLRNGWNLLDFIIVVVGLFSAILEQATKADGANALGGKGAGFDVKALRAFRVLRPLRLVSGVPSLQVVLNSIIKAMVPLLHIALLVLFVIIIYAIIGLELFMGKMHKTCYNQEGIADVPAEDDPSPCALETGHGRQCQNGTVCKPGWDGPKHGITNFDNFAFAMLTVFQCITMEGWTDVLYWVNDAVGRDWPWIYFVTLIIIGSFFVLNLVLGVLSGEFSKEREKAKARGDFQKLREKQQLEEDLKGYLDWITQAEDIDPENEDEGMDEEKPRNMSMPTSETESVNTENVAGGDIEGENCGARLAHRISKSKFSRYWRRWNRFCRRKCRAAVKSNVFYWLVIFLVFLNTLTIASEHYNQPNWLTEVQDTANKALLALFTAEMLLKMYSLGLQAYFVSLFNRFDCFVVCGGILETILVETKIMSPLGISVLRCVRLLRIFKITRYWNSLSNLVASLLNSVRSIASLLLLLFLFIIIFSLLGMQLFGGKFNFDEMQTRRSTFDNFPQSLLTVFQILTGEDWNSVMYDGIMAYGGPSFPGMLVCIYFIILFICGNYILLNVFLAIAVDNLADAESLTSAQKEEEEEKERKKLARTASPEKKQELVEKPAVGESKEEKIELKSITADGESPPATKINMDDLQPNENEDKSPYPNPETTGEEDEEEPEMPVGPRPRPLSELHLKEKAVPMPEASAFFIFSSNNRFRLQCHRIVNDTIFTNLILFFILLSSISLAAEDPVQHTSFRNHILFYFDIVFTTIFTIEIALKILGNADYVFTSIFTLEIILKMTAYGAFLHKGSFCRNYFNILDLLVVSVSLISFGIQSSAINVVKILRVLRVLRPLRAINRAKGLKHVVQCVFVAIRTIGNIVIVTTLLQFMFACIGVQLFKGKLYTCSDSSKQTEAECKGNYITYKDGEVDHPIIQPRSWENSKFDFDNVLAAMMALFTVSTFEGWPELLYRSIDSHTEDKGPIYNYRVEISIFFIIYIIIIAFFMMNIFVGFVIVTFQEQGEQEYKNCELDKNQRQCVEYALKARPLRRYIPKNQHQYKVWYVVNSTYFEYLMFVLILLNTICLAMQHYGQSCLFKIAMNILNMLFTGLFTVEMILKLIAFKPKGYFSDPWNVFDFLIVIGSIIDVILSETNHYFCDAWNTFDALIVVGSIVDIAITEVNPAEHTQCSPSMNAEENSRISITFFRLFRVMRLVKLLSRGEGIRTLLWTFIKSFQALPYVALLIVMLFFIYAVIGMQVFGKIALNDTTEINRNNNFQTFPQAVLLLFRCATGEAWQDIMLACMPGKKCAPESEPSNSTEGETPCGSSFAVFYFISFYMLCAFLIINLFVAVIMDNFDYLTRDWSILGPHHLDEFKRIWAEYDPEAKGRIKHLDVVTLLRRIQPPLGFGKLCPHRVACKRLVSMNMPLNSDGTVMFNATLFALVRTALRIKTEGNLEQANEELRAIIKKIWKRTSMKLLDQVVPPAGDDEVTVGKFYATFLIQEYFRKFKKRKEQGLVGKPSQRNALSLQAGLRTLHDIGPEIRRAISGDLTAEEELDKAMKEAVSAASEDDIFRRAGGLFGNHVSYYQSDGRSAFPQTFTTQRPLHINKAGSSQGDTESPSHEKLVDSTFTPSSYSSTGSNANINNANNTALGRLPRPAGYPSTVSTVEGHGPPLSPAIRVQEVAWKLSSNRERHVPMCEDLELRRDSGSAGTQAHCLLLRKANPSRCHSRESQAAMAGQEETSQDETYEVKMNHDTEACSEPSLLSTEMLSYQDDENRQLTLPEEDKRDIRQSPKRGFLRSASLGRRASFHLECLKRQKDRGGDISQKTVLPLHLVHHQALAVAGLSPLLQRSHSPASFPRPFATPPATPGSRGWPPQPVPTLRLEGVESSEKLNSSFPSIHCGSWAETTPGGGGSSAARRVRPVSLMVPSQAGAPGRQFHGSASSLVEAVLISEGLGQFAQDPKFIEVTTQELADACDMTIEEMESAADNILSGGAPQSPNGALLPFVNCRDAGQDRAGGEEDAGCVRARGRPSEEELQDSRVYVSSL

SMILES: CCn1c(-c2nc3cc(C(=O)N4CCCC(N)C4)ccc3n2C)cc2ccccc21 (configuration not stated)
XC50 [1]: > 15.8 µM

dTM [2]: -1.04 K
SMILES: Cc1cc(CN)cc(C)c1-c1ncn(C)c1-c1cncn1C

% of control [3]: 3.1%
SMILES: Cn1cc(-n2cnc3c(NCc4nc5cc(Cl)c(Cl)cc5[nH]4)nc(N4CCOCC4)nc32)cn1

SMILES: COCC(=O)NC/C=C/c1ccc2ncnc(Nc3ccc(Oc4ccc(C)nc4)c(C)c3)c2c1 [CP-724714]
% of control [4]: 100%

% of control ([5]; at 1 µM): 98%
% of control ([5]; at 5 µM): 89%
SMILES: C=CC(=O)Nc1cccc(C(=O)Nc2ccc(Nc3cc(-c4[nH]c(SC)nc4C)ccn3)cc2)c1

SMILES: CCC(=O)N1CCN(c2ccc(-n3c(=O)ccc4cnc5ccc(-c6cnc7ccccc7c6)cc5c43)cc2C(F)(F)F)CC1
% of control [6]: 100%

% of inhibition [7]: 15%
SMILES: Cc1ccc(-c2ccc3c(ccc4sc5c(c43)NC[C@@H](C)NC5=O)n2)cn1

SMILES: CN(C)CCOc1ccc(-c2nc(-c3ccncc3)c(-c3ccc4c(c3)CC/C4=N\O)[nH]2)cc1
% of control [8]: 92%

SMILES: N#Cc1cccc(-c2c[nH]c3ncnc(N4CCOCC4)c23)c1
% of inhibition [9]: 2%

SMILES: C=CC(=O)Nc1ccc(C(=O)Nc2[nH]nc3c2CN(C(=O)N[C@H](CN(C)C)c2ccccc2)C3(C)C)cc1
% of engagement [10]: -10.5%

SMILES: O=C(NOC[C@H](O)CO)c1ccc(F)c(F)c1Nc1ccc(I)cc1F
% of control [11]: 86%
